Some results are limits rather than exact numbers.

The values that follow come from a melting point compilation (Tetko et al.; mined from patent text by program, amines drawn as free bases though some values may be those of a salt).

Turning to `CCCC(=O)COS(=O)(=O)c1ccc(C)cc1`, the melting point is 33 to 35 °C.

In turn, `Clc1ccc(C2(Cn3cncn3)OCCO2)c(Cl)c1Cl` had a melting point of 181 °C.

In turn, `CCCCC(Cc1cc(C(C)(C)C)c(O)c(C(C)(C)C)c1)(C(=O)OC1CC(C)(C)N(C(C)=O)C(C)(C)C1)C(=O)OC1CC(C)(C)N(C(C)=O)C(C)(C)C1` yielded a melting point of 120 to 124 °C.

Compound `CCOC(=O)C1=NS(=O)(=O)c2ccccc21` had a melting point of 114 to 115 °C.

Compound `CCCCCCCCCCCCCCCCCCOc1ccc(C(=O)C(=O)O)cc1` registered a melting point of 78 to 80 °C.

In the case of `CC(=O)c1c(N=Cc2ccccc2)c(-c2ccccc2)n(Cc2ccc(Cl)cc2)c1C`, the melting point lay in the range of 136 to 137 °C.

In turn, `CCN(CC)CCNc1ccc(C=O)c2sc3ccc(Br)cc3c(=O)c12` displayed a melting point of 145 to 146 °C.

Regarding `O=C(O)CCCCCCCCCCOc1ccccc1OCc1ccccc1`, the melting point fell in the range of 62 to 63 °C.

In turn, `Nc1ccc(C#CCCN2CC=C(c3ccccc3)CC2)nc1` displayed a melting point of 136 to 137 °C.

`Cc1c(Nc2c(C#N)cnc3sc(C(=O)N4CCCC4)cc23)ccc2[nH]ccc12` displayed a melting point of 256 °C.

With `CC(=O)OCCc1cc2c(s1)SCCc1cc(=O)n(-c3ccc(Cl)cc3)nc1-2`, the melting point lay within 115 to 117 °C.

`O=C(O)COc1c2c3c(ccnc3c3ccccc13)CCC2` showed a melting point of 228 °C.

`CCOC(=O)c1cn(C)c2nc(Cl)ncc2c1=O` registered a melting point of 205 °C.

`CCOC(=O)C(Oc1cc(-c2ccccc2)on1)C(=O)OCC` yielded a melting point of 62 to 64 °C.

For the compound `CC(C)Nc1cc(Cl)nnc1NN`, the melting point was in the range of 132 to 135 °C.

The compound `FC(F)(F)Oc1cccc(C=Cc2nc(CNc3ccc(CCCCn4ccnn4)cc3)co2)c1` had a melting point of 91 to 93 °C.

`CCC(Oc1cc(OC)ccc1C(=O)c1ccc(OCc2nc(-c3ccccc3)oc2C)cc1)C(=O)O` (centres undefined) yielded a melting point of 161 to 162 °C.

As for `CCN(C)c1nc(-c2cc(OC)cc(OC)c2)nc2sc(C#N)c(C)c12`, the melting point is 145 to 148 °C.

Compound `Nc1ccc(C(=O)c2ccccn2)cc1N` showed a melting point of 137 to 138 °C.

In the case of `O=C(NC1CCN(C(=O)c2ccccc2)CC1)c1ccccc1Oc1ccc(Cl)cc1Cl`, the melting point was in the range of 63 to 66 °C.

On to `Cc1c(-c2ccccc2)c(N2CC[C@H](N(C)C)C2)c2oc(-c3ccccc3[N+](=O)[O-])nc2c1C#N`, for which the melting point was in the range of 139 to 142 °C.

The compound `CCC(=O)c1c(C)c(NC(=O)CC(C)(C)C)c(C)c2c1OCC2c1ccc(C(C)C)cc1` (centres undefined) came in with a melting point of 163 to 164 °C.

The compound `CC12CC(=O)C3C(CCC4CC=CCC43C)C1CCC2=O` (centres undefined) registered a melting point of 188 to 192 °C.

The compound `Oc1ccc(-c2c3ccccc3cc3oc4ccccc4c23)c(O)c1` gave a melting point of 201 to 202 °C.

Turning to `Cc1nn(-c2cc3nc(S(=O)Cc4ccccc4)sc3cc2F)c(=O)n1C` (centres undefined), the melting point is 162 to 164 °C.

`O=[N+]([O-])c1cccc(-c2cc3ncnc(Nc4ccc5[nH]ccc5c4)c3s2)c1` registered a melting point of 175 to 183 °C.

`CCCn1nc(-c2cnc3[nH]cc(C(=O)N[C@H](C)C(=O)N4CC(C#N)C4)c3n2)c2ccc(Cl)cc21` came in with a melting point of 219 to 221 °C.

`N#Cc1cc2[nH]c(=O)c3n[nH]c(=O)n3c2cc1-n1ccnc1` came in with a melting point greater than 300 °C.

`COC(=O)N(C)c1cccc(-c2ccc3nnc(C)n3n2)c1` showed a melting point of 164 to 166 °C.

`CCOC(=O)c1ccc(COc2cccc3occc23)cc1` gave a melting point of 70 to 72 °C.

For the compound `O=C(C=CC[C@H]1NC(=O)[C@@H]1N1C(=O)c2ccccc2C1=O)OCc1ccccc1`, the melting point fell in the range of 115 to 120 °C.

With `Cc1cc(N2C(=O)c3ccccc3C2=O)c(C)cc1N`, the melting point was 167 to 169 °C.

Take `O=C(NC1=NN(c2ccccc2)CC1)C(F)(F)F`: the melting point lay in the range of 163 to 165 °C.

`COc1cc2c(cc1OC)C(=Cc1cc(O)ccc1[N+](=O)[O-])OC2=O` showed a melting point of 253 °C.

In turn, `CCc1nc2c(cnn2CC)c(NC2CCOCC2)c1CNC(=O)c1cc(C)cc(C(=O)NCc2cccc(-c3cccc(CC4CCN(C)CC4)c3)c2)c1` had a melting point of 119 to 121 °C.

Compound `CCN(CC)CC1CCCCN1C(=O)c1ccc(-c2[nH]nc3c2C(=O)c2c(NC(=O)NN4CCOCC4)cccc2-3)s1` (centres undefined) registered a melting point of 210 to 212 °C.

`O=S1(=O)CC=C(CBr)C1` showed a melting point of 76 to 84 °C.

With `CNc1cncc(C(=O)O)c1`, the melting point was in the range of 239 to 242 °C.

The compound `CC(C)Cc1nc2ccc(C#N)cc2c(-c2ccccc2)c1CN` returned a melting point of 128 to 130 °C.

In turn, `CC[C@@H](NC(=O)N1CC(=O)NC[C@@H](Cc2cc(Cl)ccc2OC)C1=O)c1cccc(C(=O)O)c1` gave a melting point of 121 to 123 °C.

In turn, `O=[N+]([O-])c1ccc(Sc2ccc(Cl)cc2)nc1` came in with a melting point of 134 to 136 °C.

On to `O=C1CC(c2ccccc2)(c2cccs2)Oc2ccccc21` (centres undefined), for which the melting point was 78 to 80 °C.

Take `Cc1nc2nc(SCc3ccccc3)nn2c(Cl)c1Cl`: the melting point was 103 to 105 °C.

In turn, `Cc1cc2c(cc1C1=NNC(=O)CC1)N(C)C(=O)C(C)O2` (centres undefined) showed a melting point of 210 to 212 °C.

Compound `Fc1ccc(CNc2nc(OCc3ccccc3)nc(OCC(F)(F)F)n2)cc1` gave a melting point of 101 to 103 °C.

The compound `COc1ccc(-c2cnc3c(-c4ccsc4)cnn3c2)cc1` yielded a melting point of 191 to 193 °C.

As to `Cc1nc(-c2ccc(N(C)C)cc2)sc1C(=O)O`, the melting point fell in the range of 226 to 231 °C.

Take `COc1ccc(OC)c(CCc2ccc3ncn(C)c(=O)c3c2)c1`: the melting point was in the range of 83 to 85 °C.

`CN(Cc1ccc(C2=NCCN2)cc1)C(=O)OCc1ccccc1`: the melting point worked out at 84 °C.

`Clc1ncnc(Cl)c1Cl` yielded a melting point of 50 to 52 °C.

Turning to `O=C1C2CC(CN(Cc3ccccc3)C2)CN1Cc1ccccc1` (centres undefined), the melting point is 82.5 to 83.5 °C.

Compound `CCCCc1nc(Cl)c(C(N)=O)n1Cc1ccc(-c2ccccc2C(=O)O)cc1` showed a melting point of 200 to 202 °C.

The compound `COc1ccc(C(CC(=O)O)N2C(=O)C3C=C(Cl)C(Cl)=C(Cl)C3(Cl)C2=O)cc1` (centres undefined) showed a melting point of 236 to 238 °C.

On to `O=C(O)C1CCc2c(c3ccccc3n2C(=O)c2cccc(F)c2)C1` (centres undefined), for which the melting point is 170 to 171 °C.

As to `COC(=O)c1ccc(C(=O)OC)c(S(=O)(=O)NC(C)(C)C)c1`, the melting point is 132 to 134 °C.

Take `CCCCCCc1cc2c(cc1C(=O)Oc1ccc(C(=O)O)cn1)C(C)(C)CC2`: the melting point was in the range of 104 to 105 °C.

Turning to `CCn1c(=O)c(C)cc2cnc(SC)nc21`, the melting point fell in the range of 84 to 86 °C.

The compound `CC(=O)C(=Cc1ccccc1[N+](=O)[O-])C(=O)OCCCl` returned a melting point of 82 to 84 °C.

In turn, `CCOC(=O)c1cccc([N+](=O)[O-])c1NCc1ccc(-c2ccccc2C#N)cc1` displayed a melting point of 119 to 120 °C.

Consider `O=C(c1ccccc1)c1cc([N+](=O)[O-])ccc1NC1CC1`, for which the melting point amounted to 125 °C.

On to `CCCCOc1ccc2c(c1)CCC(C(=O)O)=C2`, for which the melting point was in the range of 148 to 150 °C.

Consider `Cn1cncc1C(O)(c1ccc(F)cc1)c1ccc2c(c1)C(c1cccc(Cl)c1)Nc1nnnn1-2` (centres undefined), for which the melting point is 121 °C.

`O=C1N=CC(OCc2ccccn2)(C(F)(F)F)c2cc(Cl)ccc2N1` (centres undefined): the melting point fell in the range of 233 to 235 °C.

Regarding `CCOC(=O)C(C)(C)c1nc2ccc(Cl)nn2c1Cl`, the melting point lay in the range of 66 to 67 °C.

On to `COC(=O)CCC(=O)c1ccc(C)cc1OCC(O)CNC(C)(C)C` (centres undefined), for which the melting point lay within 82 to 84.5 °C.

Regarding `CC(C)(C)NS(=O)(=O)c1ccc(C(=O)c2ccc(Cl)cc2)cc1F`, the melting point worked out at 152 °C.

`CN1CCN(c2ncccc2C#N)C(c2ccccc2)C1` (centres undefined) yielded a melting point of 65.7 to 66.8 °C.

`O=[N+]([O-])c1ccc(S(=O)(=O)n2c3cc(O)c(O)cc3c3ccc(O)c(O)c32)cc1` displayed a melting point of 233 to 234 °C.

`CC(=O)OC12Oc3cc(C(C)C)ccc3C1(OC(C)=O)C(=O)c1c(N)cccc12` (centres undefined) registered a melting point of 201 to 203 °C.

The compound `CSc1nc(N)nc(-c2ccc([N+](=O)[O-])o2)n1` registered a melting point of 179 to 181 °C.

On to `COc1ccc(C(C)c2cc(O)ccc2OC)cc1` (centres undefined), for which the melting point fell in the range of 81 to 83 °C.

Compound `CC(C)(C#N)c1cc(Cn2cnnc2)cc(C(C)(C)C#N)c1` displayed a melting point of 158 to 161 °C.

Take `NC(=O)C=Cc1cc2c(Oc3ccc(Br)cc3)cncc2s1`: the melting point was in the range of 195 to 196 °C.

As for `CSc1cc2c(cc1C(F)(F)F)N(C(=O)Nc1ccc(CO)cc1)CC2`, the melting point was in the range of 184 to 187 °C.

In turn, `Cc1ccc2ccc(C)c(O)c2c1` came in with a melting point of 124 to 125 °C.

On to `Cc1ncccc1NC(=NC#N)NC(NC(=O)Cc1ccc(F)cc1)C(C)(C)C` (centres undefined), for which the melting point was in the range of 166 to 167 °C.

Consider `Clc1nc(NCc2cccc(I)c2)c2ncn(C3CCCO3)c2n1` (centres undefined), for which the melting point fell in the range of 180 to 182 °C.

Consider `CCOc1cc2c(cc1OC)C(c1cnc(OC)nc1)=N[C@@H]1CC[C@@H](O)C[C@H]21`, for which the melting point worked out at 124 °C.

The compound `Cc1cc(OCc2nc(-c3ccc(C(F)(F)F)cc3)no2)ccc1OC(C)(C)C(=O)O` showed a melting point of 170 °C.

`CC(O)c1ccc(NS(C)(=O)=O)c(Sc2ccc(Cl)cc2Cl)c1` (centres undefined) displayed a melting point of 91 to 94 °C.

On to `O=C1CC(=O)NC(c2ccc(Cl)cc2)=N1`, for which the melting point was in the range of 120 to 121 °C.

As for `CCCc1cc(=O)[nH]c2cc(OC)cc(OC)c12`, the melting point was in the range of 193 to 196 °C.

The compound `CCCCCCCCN1C(=O)NC2(CC(C)(CC)NC(C)(CC)C2C)C1=O` (centres undefined) displayed a melting point of 65 to 67 °C.

In turn, `Cc1ccc([N+](=O)[O-])c(NC=C2C(=O)OC(C)(C)OC2=O)c1` had a melting point of 218 to 220 °C.

In turn, `Cc1cc2c(c(C)c1O)C(C)CN2C(=O)C(C)(C)C` (centres undefined) displayed a melting point of 144 to 145 °C.

In turn, `COc1ccc(C(Cl)=CC(=O)C(F)(F)C(F)(F)F)cc1OC` had a melting point of 67 °C.

With `CN(CCO)Cc1cc(NC(=N)c2cccs2)ccc1C1CCCC1`, the melting point lay within 116 to 118 °C.

`COc1ccc(NN)c(C)c1` showed a melting point of 105 °C.

`Nc1ccc(S(=O)(=O)Nc2ccc(OP(N)(N)=O)cc2)cc1`: the melting point was in the range of 174 to 175 °C.
